Activity calls are given as the source filed them.
Assays:
[1] = molecular target: RAC-alpha serine/threonine-protein kinase (Homo sapiens, UniProt P31749)
[2] = molecular target: T1, Serine/threonine-protein kinase A-Raf (Homo sapiens, UniProt P10398)
T1 sequence (P10398 whole entry): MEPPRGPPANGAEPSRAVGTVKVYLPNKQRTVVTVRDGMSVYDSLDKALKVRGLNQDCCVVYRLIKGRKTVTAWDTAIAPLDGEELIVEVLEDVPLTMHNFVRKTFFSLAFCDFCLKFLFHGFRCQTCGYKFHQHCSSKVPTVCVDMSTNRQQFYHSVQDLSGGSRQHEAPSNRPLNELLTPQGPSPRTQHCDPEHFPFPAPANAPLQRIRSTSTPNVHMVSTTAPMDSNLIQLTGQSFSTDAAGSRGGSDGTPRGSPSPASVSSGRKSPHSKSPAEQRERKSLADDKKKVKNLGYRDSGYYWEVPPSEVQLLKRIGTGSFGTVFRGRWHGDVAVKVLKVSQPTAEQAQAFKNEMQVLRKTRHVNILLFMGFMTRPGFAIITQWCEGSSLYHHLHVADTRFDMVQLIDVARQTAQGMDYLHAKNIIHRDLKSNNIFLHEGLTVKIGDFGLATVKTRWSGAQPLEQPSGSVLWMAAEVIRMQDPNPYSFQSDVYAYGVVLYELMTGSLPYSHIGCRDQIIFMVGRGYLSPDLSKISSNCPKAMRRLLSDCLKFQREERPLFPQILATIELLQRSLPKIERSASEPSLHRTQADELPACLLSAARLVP

[3] = molecular target: Tyrosine-protein kinase FRK (Homo sapiens, UniProt P42685)
[4] = molecular target: T2, Dual specificity mitogen-activated protein kinase kinase 3 (Homo sapiens, UniProt P46734)
T2 sequence (P46734 whole entry): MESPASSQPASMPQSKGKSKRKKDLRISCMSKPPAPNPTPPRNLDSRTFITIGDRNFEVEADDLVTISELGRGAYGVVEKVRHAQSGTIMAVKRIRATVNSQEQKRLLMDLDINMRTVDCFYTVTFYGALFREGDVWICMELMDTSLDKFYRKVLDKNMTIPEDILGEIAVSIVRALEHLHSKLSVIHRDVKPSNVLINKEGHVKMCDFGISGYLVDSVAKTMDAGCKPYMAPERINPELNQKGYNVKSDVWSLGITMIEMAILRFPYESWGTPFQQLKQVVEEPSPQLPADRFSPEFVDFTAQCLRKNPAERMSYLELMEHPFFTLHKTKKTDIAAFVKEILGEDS

[5] = molecular target: Mitogen-activated protein kinase kinase kinase 1 (Homo sapiens, UniProt Q13233)
[6] = molecular target: S-adenosylmethionine synthase isoform type-2 (Homo sapiens, UniProt P31153)
[7] = molecular target: Proto-oncogene tyrosine-protein kinase receptor Ret (Homo sapiens, UniProt P07949)
[8] = molecular target: Elongation factor Tu, mitochondrial (Homo sapiens, UniProt P49411)
[9] = molecular target: Casein kinase I isoform epsilon (Homo sapiens, UniProt P49674)
[10] = molecular target: T3, Interleukin-1 receptor-associated kinase 4 (Homo sapiens, UniProt Q9NWZ3)
T3 sequence (Q9NWZ3 whole entry): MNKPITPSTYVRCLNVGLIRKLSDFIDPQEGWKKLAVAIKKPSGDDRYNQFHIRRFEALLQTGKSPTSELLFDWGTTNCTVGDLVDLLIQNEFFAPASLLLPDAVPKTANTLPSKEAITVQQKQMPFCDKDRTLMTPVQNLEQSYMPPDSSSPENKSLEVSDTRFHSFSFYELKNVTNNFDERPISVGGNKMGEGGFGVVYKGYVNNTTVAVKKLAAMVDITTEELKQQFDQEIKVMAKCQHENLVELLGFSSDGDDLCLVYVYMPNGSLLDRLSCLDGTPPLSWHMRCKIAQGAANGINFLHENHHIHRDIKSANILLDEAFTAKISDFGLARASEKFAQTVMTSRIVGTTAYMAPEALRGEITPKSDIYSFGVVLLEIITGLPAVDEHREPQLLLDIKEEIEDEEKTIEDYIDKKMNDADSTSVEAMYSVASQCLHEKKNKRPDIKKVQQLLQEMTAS
Note: in the data inactive means no Kd found up to 30 µM.

RAC-alpha serine/threonine-protein kinase, sequence (P31749 whole entry): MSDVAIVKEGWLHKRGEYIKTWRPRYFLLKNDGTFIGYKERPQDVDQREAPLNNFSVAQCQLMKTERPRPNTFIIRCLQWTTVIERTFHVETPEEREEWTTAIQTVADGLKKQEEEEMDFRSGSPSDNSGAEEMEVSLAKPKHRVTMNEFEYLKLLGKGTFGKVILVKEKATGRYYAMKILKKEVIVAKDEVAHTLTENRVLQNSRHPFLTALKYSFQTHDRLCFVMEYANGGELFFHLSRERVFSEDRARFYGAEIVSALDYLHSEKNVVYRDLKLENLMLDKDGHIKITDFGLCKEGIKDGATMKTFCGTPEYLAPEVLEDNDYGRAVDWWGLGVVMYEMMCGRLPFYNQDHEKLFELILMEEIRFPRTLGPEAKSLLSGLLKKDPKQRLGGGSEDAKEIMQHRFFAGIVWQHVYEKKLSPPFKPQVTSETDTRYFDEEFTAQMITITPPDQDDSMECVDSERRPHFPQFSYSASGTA
Casein kinase I isoform epsilon, sequence (P49674 whole entry, canonical isoform): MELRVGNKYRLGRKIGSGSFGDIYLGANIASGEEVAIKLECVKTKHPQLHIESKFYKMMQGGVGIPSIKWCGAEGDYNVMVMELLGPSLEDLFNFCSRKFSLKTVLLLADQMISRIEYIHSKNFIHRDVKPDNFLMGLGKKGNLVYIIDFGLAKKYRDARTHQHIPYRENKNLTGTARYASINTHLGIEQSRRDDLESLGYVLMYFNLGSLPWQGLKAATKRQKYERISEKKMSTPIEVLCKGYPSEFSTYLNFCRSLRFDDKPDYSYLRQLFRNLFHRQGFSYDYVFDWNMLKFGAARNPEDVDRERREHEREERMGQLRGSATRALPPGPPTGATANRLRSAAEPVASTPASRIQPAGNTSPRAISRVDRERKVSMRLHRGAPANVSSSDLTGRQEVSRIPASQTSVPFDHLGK
S-adenosylmethionine synthase isoform type-2, sequence (P31153 whole entry, canonical isoform): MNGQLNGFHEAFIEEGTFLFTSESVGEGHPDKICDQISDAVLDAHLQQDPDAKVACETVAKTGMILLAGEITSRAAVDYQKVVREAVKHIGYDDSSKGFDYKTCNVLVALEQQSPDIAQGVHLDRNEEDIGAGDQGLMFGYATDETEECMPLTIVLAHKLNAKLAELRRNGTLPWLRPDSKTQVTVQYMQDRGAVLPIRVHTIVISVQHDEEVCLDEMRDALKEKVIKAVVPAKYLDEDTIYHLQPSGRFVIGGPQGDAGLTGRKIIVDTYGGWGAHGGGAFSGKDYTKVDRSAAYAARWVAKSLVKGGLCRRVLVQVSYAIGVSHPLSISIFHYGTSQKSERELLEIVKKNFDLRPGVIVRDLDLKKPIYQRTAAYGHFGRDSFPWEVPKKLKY
Proto-oncogene tyrosine-protein kinase receptor Ret, sequence (P07949 whole entry): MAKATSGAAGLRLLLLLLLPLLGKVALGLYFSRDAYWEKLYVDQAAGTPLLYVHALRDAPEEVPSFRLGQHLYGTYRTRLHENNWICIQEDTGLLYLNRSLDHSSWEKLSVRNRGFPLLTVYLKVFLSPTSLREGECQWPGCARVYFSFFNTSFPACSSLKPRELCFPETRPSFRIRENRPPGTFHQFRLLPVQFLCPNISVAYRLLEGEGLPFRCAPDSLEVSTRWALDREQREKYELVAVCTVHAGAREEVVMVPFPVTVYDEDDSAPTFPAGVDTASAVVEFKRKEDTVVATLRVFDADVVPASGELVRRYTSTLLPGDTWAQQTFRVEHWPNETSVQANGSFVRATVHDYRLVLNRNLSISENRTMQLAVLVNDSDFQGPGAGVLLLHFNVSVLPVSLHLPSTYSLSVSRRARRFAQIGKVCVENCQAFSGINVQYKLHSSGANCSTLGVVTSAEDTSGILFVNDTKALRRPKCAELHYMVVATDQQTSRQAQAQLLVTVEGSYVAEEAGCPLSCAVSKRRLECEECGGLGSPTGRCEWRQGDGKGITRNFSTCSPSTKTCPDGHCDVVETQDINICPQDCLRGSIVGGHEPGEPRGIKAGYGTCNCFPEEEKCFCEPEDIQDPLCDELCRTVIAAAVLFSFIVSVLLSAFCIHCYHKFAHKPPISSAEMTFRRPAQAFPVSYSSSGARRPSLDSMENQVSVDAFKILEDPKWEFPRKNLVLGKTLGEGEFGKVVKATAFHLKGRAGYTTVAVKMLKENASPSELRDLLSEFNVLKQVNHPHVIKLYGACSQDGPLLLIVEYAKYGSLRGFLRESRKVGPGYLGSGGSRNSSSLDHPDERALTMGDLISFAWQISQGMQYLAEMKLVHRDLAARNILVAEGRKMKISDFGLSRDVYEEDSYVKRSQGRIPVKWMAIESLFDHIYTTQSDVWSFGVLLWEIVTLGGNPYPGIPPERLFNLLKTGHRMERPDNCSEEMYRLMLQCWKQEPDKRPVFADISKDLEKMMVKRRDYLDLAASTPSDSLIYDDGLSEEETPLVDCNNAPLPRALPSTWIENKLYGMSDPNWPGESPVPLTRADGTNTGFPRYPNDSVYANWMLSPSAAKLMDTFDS
Mitogen-activated protein kinase kinase kinase 1, sequence (Q13233 whole entry, canonical isoform): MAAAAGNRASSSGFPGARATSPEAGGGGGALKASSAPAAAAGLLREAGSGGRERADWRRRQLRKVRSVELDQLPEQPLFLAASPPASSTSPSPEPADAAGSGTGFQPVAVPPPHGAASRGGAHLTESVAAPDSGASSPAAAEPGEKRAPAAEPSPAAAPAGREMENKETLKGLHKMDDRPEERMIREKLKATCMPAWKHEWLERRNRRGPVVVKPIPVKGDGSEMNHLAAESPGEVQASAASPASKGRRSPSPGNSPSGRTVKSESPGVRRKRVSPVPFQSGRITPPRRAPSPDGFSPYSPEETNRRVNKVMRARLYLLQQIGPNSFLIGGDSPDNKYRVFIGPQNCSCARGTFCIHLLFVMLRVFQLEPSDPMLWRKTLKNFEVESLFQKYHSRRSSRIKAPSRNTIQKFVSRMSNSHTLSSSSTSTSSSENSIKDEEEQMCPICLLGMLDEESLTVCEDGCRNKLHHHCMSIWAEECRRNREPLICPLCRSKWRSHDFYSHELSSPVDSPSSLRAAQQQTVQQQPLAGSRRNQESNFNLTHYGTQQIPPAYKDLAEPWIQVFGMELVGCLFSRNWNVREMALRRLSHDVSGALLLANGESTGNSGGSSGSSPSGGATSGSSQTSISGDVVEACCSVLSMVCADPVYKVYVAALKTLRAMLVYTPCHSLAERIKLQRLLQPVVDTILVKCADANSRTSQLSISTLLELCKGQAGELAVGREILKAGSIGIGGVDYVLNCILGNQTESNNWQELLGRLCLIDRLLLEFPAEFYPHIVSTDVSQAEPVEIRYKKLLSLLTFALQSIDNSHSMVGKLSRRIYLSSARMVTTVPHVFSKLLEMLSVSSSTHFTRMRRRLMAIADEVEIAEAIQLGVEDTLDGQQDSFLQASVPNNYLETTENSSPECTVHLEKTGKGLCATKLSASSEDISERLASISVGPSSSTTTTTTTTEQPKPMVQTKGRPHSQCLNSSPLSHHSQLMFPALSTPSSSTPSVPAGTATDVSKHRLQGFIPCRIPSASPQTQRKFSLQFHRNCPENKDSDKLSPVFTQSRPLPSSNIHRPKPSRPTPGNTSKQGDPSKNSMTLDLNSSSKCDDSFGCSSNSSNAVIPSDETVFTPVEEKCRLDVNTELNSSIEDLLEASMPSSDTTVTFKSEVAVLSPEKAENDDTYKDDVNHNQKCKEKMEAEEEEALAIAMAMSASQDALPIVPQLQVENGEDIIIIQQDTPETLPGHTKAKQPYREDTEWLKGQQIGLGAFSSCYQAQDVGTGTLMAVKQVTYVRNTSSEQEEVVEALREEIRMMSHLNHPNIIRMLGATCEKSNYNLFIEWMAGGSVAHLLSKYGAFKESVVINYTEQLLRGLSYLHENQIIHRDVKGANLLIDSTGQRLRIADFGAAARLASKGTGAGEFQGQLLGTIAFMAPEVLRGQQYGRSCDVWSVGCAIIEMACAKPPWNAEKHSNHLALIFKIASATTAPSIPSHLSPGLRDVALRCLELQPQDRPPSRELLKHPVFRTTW
Tyrosine-protein kinase FRK, sequence (P42685 whole entry): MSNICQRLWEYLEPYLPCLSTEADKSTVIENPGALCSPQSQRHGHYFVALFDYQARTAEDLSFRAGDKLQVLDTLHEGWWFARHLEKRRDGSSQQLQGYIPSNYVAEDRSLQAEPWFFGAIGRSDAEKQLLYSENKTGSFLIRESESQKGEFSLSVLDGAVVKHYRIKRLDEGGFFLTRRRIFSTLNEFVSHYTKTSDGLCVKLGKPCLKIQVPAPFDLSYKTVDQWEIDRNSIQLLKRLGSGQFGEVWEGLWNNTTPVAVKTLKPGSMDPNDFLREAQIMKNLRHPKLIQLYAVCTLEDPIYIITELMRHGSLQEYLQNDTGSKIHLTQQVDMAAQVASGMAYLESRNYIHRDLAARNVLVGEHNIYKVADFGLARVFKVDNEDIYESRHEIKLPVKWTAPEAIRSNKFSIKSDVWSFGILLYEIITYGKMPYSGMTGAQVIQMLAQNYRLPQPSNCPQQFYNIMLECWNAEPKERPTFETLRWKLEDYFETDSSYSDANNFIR

Row | SMILES | Kd [1] | Kd [2] | Kd [3] | Kd [4] | Kd [5] | Kd [6] | Kd [7] | Kd [8] | Kd [9] | Kd [10]
1 | CC(=O)c1cnc2ccc(-c3cc(Cl)c(O)c(Cl)c3)nc2c1N[C@H]1CC[C@H](CN(C)C)CC1 | > 30 µM (inactive) | > 30 µM (inactive) | > 30 µM (inactive) | > 30 µM (inactive) | > 30 µM (inactive) | > 30 µM (inactive) | 0.028 µM (active) | > 30 µM (inactive) |  | 
2 | Nc1ncnc2c1c(-c1cccc(OCc3ccccc3)c1)cn2[C@H]1C[C@@H](CN2CCC2)C1 [AEW-541] | > 30 µM (inactive) | > 30 µM (inactive) | > 30 µM (inactive) | > 30 µM (inactive) | > 30 µM (inactive) |  | 23.2 µM (active) | > 30 µM (inactive) | 60.5 µM (active) | > 30 µM (inactive)
3 | Cc1csc(-c2nnc(Nc3ccc(Oc4ncccc4-c4ccnc(N)n4)cc3)c3ccccc23)c1 [AMG-900] | > 30 µM (inactive) | > 30 µM (inactive) | > 30 µM (inactive) | > 30 µM (inactive) | > 30 µM (inactive) |  | 1.14 µM (active) | > 30 µM (inactive) | > 30 µM (inactive) | > 30 µM (inactive)
4 | CNC(=O)c1ccccc1Sc1ccc2c(/C=C/c3ccccn3)n[nH]c2c1 [AXITINIB] |  | > 30 µM (inactive) |  |  |  | > 30 µM (inactive) |  | > 30 µM (inactive) |  | 
5 | NC(=O)Nc1cc(-c2cccc(F)c2)sc1C(=O)N[C@H]1CCCNC1 [AZD-7762] | > 30 µM (inactive) | > 30 µM (inactive) | 1.21 µM (active) | > 30 µM (inactive) | > 30 µM (inactive) |  | 0.023 µM (active) | > 30 µM (inactive) | > 30 µM (inactive) | 
6 | Cc1cc(C(=O)NOCCO)c(Nc2ccc(I)cc2F)n(C)c1=O [AZD-8330] | > 30 µM (inactive) | > 30 µM (inactive) | > 30 µM (inactive) | > 30 µM (inactive) | > 30 µM (inactive) |  | > 30 µM (inactive) | > 30 µM (inactive) | > 30 µM (inactive) | > 30 µM (inactive)
7 | CC(C)(C)c1nc(-c2cccc(NS(=O)(=O)c3c(F)cccc3F)c2F)c(-c2ccnc(N)n2)s1 [DABRAFENIB] |  | 0.047 µM (active) | 0.727 µM (active) |  | > 30 µM (inactive) | > 30 µM (inactive) |  | > 30 µM (inactive) | > 30 µM (inactive) | > 30 µM (inactive)
8 | Cn1cc(C2=C(c3cn(C4CCN(Cc5ccccn5)CC4)c4ccccc34)C(=O)NC2=O)c2ccccc21 [ENZASTAURIN] |  | > 30 µM (inactive) |  |  |  | > 30 µM (inactive) |  | > 30 µM (inactive) |  | 
9 | O=C(Nc1cc(C(F)(F)F)cc(C(F)(F)F)c1)c1cc(Cl)ccc1O [IMD-0354] | > 30 µM (inactive) | > 30 µM (inactive) | > 30 µM (inactive) | > 30 µM (inactive) | > 30 µM (inactive) | > 30 µM (inactive) | > 30 µM (inactive) | > 30 µM (inactive) | > 30 µM (inactive) | 
10 | NC1(c2ccc(-c3nc4ccn5c(=O)[nH]nc5c4cc3-c3ccccc3)cc2)CCC1 [MK-2206] |  | > 30 µM (inactive) | > 30 µM (inactive) | > 30 µM (inactive) | > 30 µM (inactive) | > 30 µM (inactive) | > 30 µM (inactive) | > 30 µM (inactive) | > 30 µM (inactive) | > 30 µM (inactive)
11 | CN(C[C@@H]1COCCO1)S(=O)(=O)Nc1ccc2ccc3ncc(-c4cnn(C)c4)cc3c(=O)c2c1 [MK-2461] | > 30 µM (inactive) | > 30 µM (inactive) | > 30 µM (inactive) | > 30 µM (inactive) | > 30 µM (inactive) | > 30 µM (inactive) |  | > 30 µM (inactive) | > 30 µM (inactive) | 1.47 µM (active)
12 | Cc1[nH]c(/C=C2\C(=O)Nc3ccccc32)c(C)c1CCC(=O)O [ORANTINIB] |  | > 30 µM (inactive) |  | > 30 µM (inactive) | > 30 µM (inactive) |  |  | > 30 µM (inactive) |  | 
13 | NC(=O)c1c(OCc2c(F)cc(Br)cc2F)nsc1NC(=O)NCCCCN1CCCC1 [OSI-632] |  | > 30 µM (inactive) |  | > 30 µM (inactive) | 0.135 µM (active) | > 30 µM (inactive) |  | > 30 µM (inactive) | 1.47 µM | 
14 | CNC(=O)c1cc(Oc2ccc(NC(=O)Nc3cc(C(C)(C)C)nn3-c3ccc4ncccc4c3)c(F)c2)ccn1 [REBASTINIB] | > 30 µM (inactive) | 33.7 µM (active) |  | > 30 µM (inactive) | > 30 µM (inactive) |  |  | > 30 µM (inactive) | > 30 µM (inactive) | 23.2 µM (active)
15 | N#CC[C@H](C1CCCC1)n1cc(-c2ncnc3[nH]ccc23)cn1 [RUXOLITINIB] |  | > 30 µM (inactive) |  |  |  | > 30 µM (inactive) |  | > 30 µM (inactive) |  | 
16 | Cn1ncc(Cl)c1-c1cc(C(=O)N[C@H](CN)Cc2ccc(F)c(F)c2)oc1Cl [UPROSERTIB] |  | > 30 µM (inactive) | > 30 µM (inactive) | > 30 µM (inactive) | > 30 µM (inactive) | > 30 µM (inactive) | > 30 µM (inactive) | > 30 µM (inactive) | > 30 µM (inactive) | > 30 µM (inactive)

The remaining lines, values ahead:

Row | Kd [1] | Kd [2] | Kd [3] | Kd [4] | Kd [5] | Kd [6] | Kd [7] | Kd [8] | Kd [9] | Kd [10] | SMILES
17 |  | > 30 µM (inactive) |  | > 30 µM (inactive) | > 30 µM (inactive) | > 30 µM (inactive) |  | > 30 µM (inactive) | > 30 µM (inactive) |  | COc1cc(Nc2ncc3c(n2)-c2ccc(Cl)cc2C(c2c(F)cccc2OC)=NC3)ccc1C(=O)O [ALISERTIB]
18 | > 30 µM (inactive) | > 30 µM (inactive) | > 30 µM (inactive) | > 30 µM (inactive) |  | > 30 µM (inactive) |  | > 30 µM (inactive) | > 30 µM (inactive) | > 30 µM (inactive) | O=C(Nc1c[nH]nc1-c1nc2cc(CN3CCOCC3)ccc2[nH]1)NC1CC1 [AT-9283]
19 | > 30 µM (inactive) | > 30 µM (inactive) | 0.85 µM | > 30 µM (inactive) | > 30 µM (inactive) | > 30 µM (inactive) |  | > 30 µM (inactive) | > 30 µM (inactive) | > 30 µM (inactive) | COc1cc2ncnc(Oc3cccc(NC(=O)Nc4cc(C(C)(C)C(F)(F)F)on4)c3)c2cc1OC [CEP-32496]
20 | > 30 µM (inactive) | > 30 µM (inactive) | > 30 µM (inactive) | > 30 µM (inactive) | > 30 µM (inactive) | > 30 µM (inactive) |  | > 30 µM (inactive) | > 30 µM (inactive) | > 30 µM (inactive) | Cc1cc(Nc2ncc(Cl)c(Nc3ccccc3S(=O)(=O)C(C)C)n2)c(OC(C)C)cc1C1CCNCC1 [CERITINIB]
21 | > 30 µM (inactive) | > 30 µM (inactive) | > 30 µM (inactive) | > 30 µM (inactive) | 1.28 µM (active) | > 30 µM (inactive) |  | > 30 µM (inactive) | > 30 µM (inactive) | > 30 µM (inactive) | C#Cc1cccc(Nc2ncnc3cc(OC)c(OCCCCCCC(=O)NO)cc23)c1 [CUDC-101]
22 |  | > 30 µM (inactive) |  |  |  | > 30 µM (inactive) |  | > 30 µM (inactive) |  |  | C[C@@H](Oc1cc(-n2cnc3ccc(CN4CCN(C)CC4)cc32)sc1C(N)=O)c1ccccc1C(F)(F)F [GSK-461364]
23 |  | > 30 µM (inactive) |  | > 30 µM (inactive) | 2.18 µM | > 30 µM (inactive) |  | > 30 µM (inactive) |  |  | CC(=O)NCC(=O)N1[C@@H]2CC[C@H]1c1ccc(Nc3ncc(C(F)(F)F)c(NC4CCC4)n3)cc12 [PF-03814735]
24 |  | > 30 µM (inactive) |  |  |  | > 30 µM (inactive) |  | > 30 µM (inactive) |  |  | O=C(NOCCO)c1cc(CN2OCCCC2=O)c(F)c(F)c1Nc1ccc(I)cc1F [RO-4987655]
